{"source": "patent US20130281361A1", "about": "“METHODS OF TREATING AND PREVENTING RHINOVIRUS INFECTION” (priority 2010, published 2013)", "molecules": {"B1": {"name": "HNP-5: recombinant human α-defensin (Pepnet), α-5; probably human defensin 5 (HD5) (protein, UniProt Q01523 20-94, looked up)", "Defensin alpha 5": "ESLQERADEATTQKQSGEDNQDLAISFAGNGLSALRTSGSQARATCYCRTGRCATRESLSGVCEISGRLYRLCCR", "modifications": "Defensin-5 recombinant"}}, "key": {"[1]": {"system": "adenovirus", "conditions": "background literature; cited from earlier work"}, "[2]": {"system": "papillomavirus", "conditions": "background literature; cited from earlier work"}, "[3]": {"system": "rhinovirus (Rv16)", "assay": "Rhinovirus (Rv16) infectivity: virus incubated with peptide, titer quantified by TCID50 assay using H1-HeLa cells", "assay_type": "cell-based", "conditions": "for concentration at which maximal efficacy was reached / reduction of rhinovirus titer at maximal efficacy: Rv16, 1 hour at 37° C.; for reduction of rhinovirus titer at maximal efficacy: at the concentration given under E5", "experimental": "To determine if β-defensins had antiviral activity against rhinovirus, recombinant human β-defensins (Peprotech, Rocky Hill, N.J.) were used in assays with rhinovirus (Rv16). Recombinant β-defensin proteins were diluted in PBS to the desired concentrations (0.25-1.25 μg/mL). Virus was added to each tube to a final volume of 40 μL and incubated for 1 hour at 37° C. plus 5% CO2. After incubation, 200 uL of cell culture media was added to each tube and viral titers were quantified in a 50% Tissue Culture Infectious Dose (TCID50) assay using H1-HeLa cells. The TCID50 assay is a standard endpoint dilution assay that is used to quantify how much of a given virus is present in a sample. The limit of detection for rhinovirus in the assay was 1.2 log10 TCID50.\nHuman α-defensins and LL-37, a broadly expressed antimicrobial peptide from the cathelicidin family, were also tested for antiviral activity against rhinovirus. Recombinant human α-defensins (HNP-1, HNP-3 and HNP-5) (Pepnet, Louisville, Ky.) and recombinant LL-37 (Pepnet, Louisville, Ky.) were used in assays with rhinovirus (Rv16) to determine their antiviral activity. Recombinant HBD-3 (Peprotech, Rocky Hill, N.J.) was used as a control. The recombinant proteins were diluted in PBS to the desired concentrations (see FIG. 2). Virus was added to each tube to a final volume of 40 μL and incubated for 1 hour at 37° C. plus 5% CO2. After incubation, 200 μL of cell culture media was added to each tube and the concentration of virus was quantified by TCID50 assay using H1-HeLa cells. The limit of detection for rhinovirus in the assay was 1.2 log10 TCID50/mL."}, "[4]": {"system": "rhinovirus", "conditions": "Proud et al., J Immunol 172:4637-4645, 2004; cited from earlier work"}}, "note": "Entries after “also recorded” stand apart in the source; their conditions may differ. No end group written: not given here.", "data": [{"molecule": "human defensin 5 (ATCYCRTGRCATRESLSGVCEISGRLYRLCCR; ends and bridges not checked; cysteine pairing not given here; UniProt Q01523 63-94, looked up, fragment) [HD5, human α-defensin]", "values": [{"measurement": "antiviral activity against adenovirus", "setting": "[1]", "value": "antiviral activity was observed"}, {"measurement": "antiviral activity against papillomavirus", "setting": "[2]", "value": "antiviral activity was observed"}]}, {"molecule": "human neutrophil peptide 1 [HNP-1]", "values": [{"measurement": "antiviral activity against rhinovirus (Rv16), in words", "setting": "[3]; Example 2, FIG. 2", "value": "exhibited antiviral activity"}, {"measurement": "concentration at which maximal efficacy was reached", "setting": "[3]; Example 2, FIG. 2", "value": 5, "unit": "µg/mL"}, {"measurement": "reduction of rhinovirus titer at maximal efficacy", "setting": "[3]; Example 2, FIG. 2", "value": 1, "unit": "Log10 TCID50/mL"}, {"measurement": "antiviral activity against adenovirus", "setting": "[1]", "value": "antiviral activity was observed"}, {"measurement": "antiviral activity against papillomavirus", "setting": "[2]", "value": "antiviral activity was observed"}]}, {"molecule": "human neutrophil peptide 3 [HNP-3]", "values": [{"measurement": "antiviral activity against rhinovirus (Rv16), in words", "setting": "[3]; Example 2, FIG. 2", "value": "exhibited antiviral activity"}, {"measurement": "concentration at which maximal efficacy was reached", "setting": "[3]; Example 2, FIG. 2", "value": 2.5, "unit": "µg/mL"}, {"measurement": "reduction of rhinovirus titer at maximal efficacy", "setting": "[3]; Example 2, FIG. 2", "value": 2.3, "unit": "Log10 TCID50/mL"}]}, {"molecule": "human β-defensin 1 (DHYNCVSSGGQCLYSACPIFTKIQGTCYRGKAKCCK; ends and bridges not checked; cysteine pairing not given here; UniProt P60022 33-68, looked up) [HBD-1, recombinant human β-defensin (Peprotech)]", "values": [{"measurement": "antiviral activity against rhinovirus (Rv16), in words", "setting": "[3]; Example 1, FIG. 1", "value": "significantly reduced viral concentration; also recorded: exhibited antiviral activity"}, {"measurement": "antiviral activity against adenovirus", "setting": "[1]", "value": "antiviral activity was observed"}, {"measurement": "antiviral activity against papillomavirus", "setting": "[2]", "value": "antiviral activity was observed"}]}, {"molecule": "human β-defensin 2 [HBD-2]", "values": [{"measurement": "antiviral activity against rhinovirus (Rv16), in words", "setting": "[3]; Example 1, FIG. 1", "value": "significantly reduced viral concentration; also recorded: exhibited antiviral activity"}, {"measurement": "antiviral activity against adenovirus", "setting": "[1]", "value": "not"}, {"measurement": "ability to inactivate rhinovirus", "setting": "[4]", "value": "unable to inactivate rhinovirus"}, {"measurement": "antiviral activity against papillomavirus", "setting": "[2]", "value": "not"}]}, {"molecule": "human β-defensin 3 (GIINTLQKYYCRVRGGRCAVLSCLPKEEQIGKCSTRGRKCCRRKK; ends and bridges not checked; cysteine pairing not given here; UniProt P81534 23-67, looked up) [HBD-3, recombinant human β-defensin (Peprotech)]", "values": [{"measurement": "antiviral activity against rhinovirus (Rv16), in words", "setting": "[3]; Example 1, FIG. 1", "value": "significantly reduced viral concentration; also recorded: exhibited antiviral activity"}, {"measurement": "antiviral activity against rhinovirus (Rv16), in words", "setting": "[3]; Example 2, FIG. 2", "value": "most susceptible"}]}, {"molecule": "human β-defensin 4 (EFELDRICGYGTARCRKKCRSQEYRIGRCPNTYACCLRKWDESLLNRTKP; ends and bridges not checked; cysteine pairing not given here; UniProt Q8WTQ1 23-72, looked up) [HBD-4, recombinant human β-defensin (Peprotech)]", "values": [{"measurement": "antiviral activity against rhinovirus (Rv16), in words", "setting": "[3]; Example 1, FIG. 1", "value": "significantly reduced viral concentration; also recorded: exhibited antiviral activity"}]}, {"molecule": "B1", "values": [{"measurement": "antiviral activity against rhinovirus (Rv16), in words", "setting": "[3]; Example 2, FIG. 2", "value": "most effective; also recorded: exhibited antiviral activity"}, {"measurement": "concentration at which maximal efficacy was reached", "setting": "[3]; Example 2, FIG. 2", "value": 2, "unit": "µg/mL"}, {"measurement": "reduction of rhinovirus titer at maximal efficacy", "setting": "[3]; Example 2, FIG. 2", "value": 2.5, "unit": "Log10 TCID50/mL"}]}]}
